Five molecules from patent EP4790066A1, “GLP-1R/GIPR/GCGR TRIPLE AGONIST ANALOGUE AND USE THEREOF” (Shenzhen Bay Laboratory, priority 2023, dated 2025) can be followed below.

Holding throughout (type): cell-based
Assay [1] addresses T1, GIPR (Homo sapiens, UniProt P48546).
T1 construct: expressed in transfected cells
T1 sequence (P48546 22-466): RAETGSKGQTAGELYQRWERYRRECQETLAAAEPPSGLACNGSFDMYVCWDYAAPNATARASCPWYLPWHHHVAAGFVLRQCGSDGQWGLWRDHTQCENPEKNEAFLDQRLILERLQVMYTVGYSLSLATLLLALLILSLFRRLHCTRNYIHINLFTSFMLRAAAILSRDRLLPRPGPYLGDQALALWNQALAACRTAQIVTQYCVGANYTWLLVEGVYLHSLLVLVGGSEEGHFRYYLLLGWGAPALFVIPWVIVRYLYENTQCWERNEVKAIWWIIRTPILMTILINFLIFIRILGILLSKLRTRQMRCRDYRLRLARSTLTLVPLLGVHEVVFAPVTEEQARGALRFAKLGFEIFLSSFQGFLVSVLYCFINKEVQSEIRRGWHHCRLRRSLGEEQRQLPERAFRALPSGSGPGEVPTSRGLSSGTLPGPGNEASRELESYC
Description: CreLuc method (CRE-luciferase reporter), HEK293/pGM-CREB-L-Luc/GIPR pool. Conditions: 6 h incubation, read-out: EC50 (pM) for each receptor GIPR. Summed up:
(§1)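 Stable HEK293 pools co-expressing each receptor with a CRE-luciferase reporter were plated at 20,000 cells/well in freestyle medium and treated with compound dilution series for 6 h at 37 °C. Luminescence was read with ONE-GLO to derive EC50.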

Assay [2] addresses T2, GLP-1R (Homo sapiens, UniProt P43220).
T2 construct: expressed in transfected cells
Description: cAMP method (HTRF cAMP detection kit), HEK293/pGM-CREB-L-Luc/GLP-1 pool. Conditions: read-out: EC50 (pM) for each receptor GLP-1R. The procedure:
(§2) 2. Insulinotropic analogues can bind to target receptors on the cell membrane, activate the receptors, and induce release. The activity of the test substance can be determined using the HTRF method with a cAMP detection kit. Therefore, the cAMP method can be used to detect the target peptide derivatives (or polypeptide derivatives, i.e., TG1-TG86) prepared in Example 1 and Example 2. […] The test cell line was selected, treated with cAMP-specific trypsin for digestion. 3 mL of serum-free DMEM culture medium was added, and the cells were pipetted, resuspended, and counted. 5 µL of IBMX (prepared with serum-free DMEM medium, 0.5 mM) and test cells (5 µL/7500 cells/well) were added in a 384-well plate sequentially. The plate was incubated at 37°C under 5% CO2 for 30 min, followed by the addition of cAMP-d2 (5 µL, 1x) and Anti-cAMP-Cryptate (5 µL, 1x). The mixture was kept at room temperature for 1 h, after which the HTRF value was measured using a chemiluminescent microplate reader, and the determination result was recorded. […] Table 4: EC50 values for target peptide derivatives

Assay [3] addresses T1, GIPR. The experiment in a line: cAMP method (HTRF cAMP detection kit), HEK293/pGM-CREB-L-Luc/GIP pool. Conditions: read-out: EC50 (pM) for each receptor GIPR. The procedure: as §2
Assay [4] has as its target T2, GLP-1R. The experiment in a line: CreLuc method (CRE-luciferase reporter), HEK293/pGM-CREB-L-Luc/GLP-1R pool. The settings on record: 6 h incubation, read-out: EC50 (pM) for each receptor GLP-1R. The method, boiled down: as §1
On the technique in general: Reporter assays use an easily measured gene product as a stand-in for the process of interest.

Assay [5] concerns the target T3, GCGR (Homo sapiens, UniProt P47871).
T3 construct: expressed in transfected cells
The experiment in a line: cAMP method (HTRF cAMP detection kit), HEK293/pGM-CREB-L-Luc/GCG pool. The settings on record: read-out: EC50 (pM) for each receptor GCGR. The method, then:
as §2
(In general: TR-FRET usually uses a lanthanide donor and a delayed reading to cut background.)

Assay [6] has as its target T3, GCGR. The experiment in a line: CreLuc method (CRE-luciferase reporter), 293HEK/pGM-CREB-L-Luc/GCGR pool. Conditions: 6 h incubation, read-out: EC50 (pM) for each receptor GCGR. The method, boiled down: as §1

Molecules are shown by their SMILES.

A word on the EC50: it is the midpoint of the concentration-response curve.

T2 sequence (P43220 24-463, species assumed): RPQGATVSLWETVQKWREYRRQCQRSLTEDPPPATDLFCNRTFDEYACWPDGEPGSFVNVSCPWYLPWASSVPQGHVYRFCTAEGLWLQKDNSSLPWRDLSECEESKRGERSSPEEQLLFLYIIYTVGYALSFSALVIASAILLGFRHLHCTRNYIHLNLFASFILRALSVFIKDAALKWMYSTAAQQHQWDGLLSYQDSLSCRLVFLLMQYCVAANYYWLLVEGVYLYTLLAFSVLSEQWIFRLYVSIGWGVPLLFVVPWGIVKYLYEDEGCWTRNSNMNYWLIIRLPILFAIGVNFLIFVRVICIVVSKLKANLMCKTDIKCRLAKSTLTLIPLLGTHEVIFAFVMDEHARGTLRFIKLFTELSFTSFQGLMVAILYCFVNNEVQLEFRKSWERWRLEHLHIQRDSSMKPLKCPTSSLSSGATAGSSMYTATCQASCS
T3 sequence (P47871 26-477, species assumed): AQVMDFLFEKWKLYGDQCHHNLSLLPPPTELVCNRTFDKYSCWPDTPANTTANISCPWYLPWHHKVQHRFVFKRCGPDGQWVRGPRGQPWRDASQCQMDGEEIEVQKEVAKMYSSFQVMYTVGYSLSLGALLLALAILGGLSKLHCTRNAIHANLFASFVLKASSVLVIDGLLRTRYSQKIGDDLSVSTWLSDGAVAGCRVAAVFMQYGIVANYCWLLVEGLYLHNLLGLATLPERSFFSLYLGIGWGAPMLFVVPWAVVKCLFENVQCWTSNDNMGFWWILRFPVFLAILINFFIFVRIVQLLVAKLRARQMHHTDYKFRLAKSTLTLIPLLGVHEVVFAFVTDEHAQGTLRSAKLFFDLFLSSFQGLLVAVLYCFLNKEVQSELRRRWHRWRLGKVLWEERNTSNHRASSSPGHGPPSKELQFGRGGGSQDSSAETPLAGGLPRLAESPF

For the molecule `CC[C@H](C)[C@@H]1NC(=O)[C@H](Cc2ccccc2)NC(=O)[C@@H](NC(=O)C(C)(C)NC(=O)[C@H](CCC(N)=O)NC(=O)[C@H](C)NC(=O)[C@H](CCCCNC(C)=O)NC(=O)[C@H](CCCCN)NC(=O)[C@H](CC(=O)O)NC(=O)[C@H](CC(C)C)NC(=O)[C@](C)(CC(C)C)NC(=O)[C@@H](NC(=O)[C@H](CO)NC(=O)[C@H](Cc2ccc(O)cc2)NC(=O)[C@H](CC(=O)O)NC(=O)[C@H](CO)NC(=O)[C@@H](NC(=O)[C@H](Cc2ccccc2)NC(=O)[C@@H](NC(=O)CNC(=O)[C@H](CCC(N)=O)NC(=O)C(C)(C)NC(=O)[C@@H](N)Cc2c[nH]cn2)[C@@H](C)O)[C@@H](C)O)[C@@H](C)CC)CSCC(=O)NCCN(C(=O)CCC(=O)NCCOCCOCC(=O)NCCOCCOCC(=O)NCCCC[C@H](NC(=O)CCCCCCCCCCCCCCCCCCC(=O)O)C(=O)O)CCNC(=O)CSC[C@@H](C(=O)NCC(=O)NCC(=O)N2CCC[C@H]2C(=O)N[C@@H](CO)C(=O)N[C@@H](CO)C(=O)NCC(=O)N[C@@H](C)C(=O)N2CCC[C@H]2C(=O)N2CCC[C@H]2C(=O)N2CCC[C@H]2C(=O)N[C@@H](CO)C(N)=O)NC(=O)[C@H](CC(C)C)NC(=O)[C@H](CC(C)C)NC(=O)[C@H](Cc2ccc(O)cc2)NC(=O)[C@H](CCC(=O)O)NC1=O` [TG18], the EC50 on GIPR [1] was 25.9 pM; on GLP-1R [2] it was 1.4 pM; at GIPR [3], 1.7 pM; on GLP-1R [4] it was 66.9 pM; at GCGR [5], 94.4 pM; on GCGR [6], 802 pM.

Regarding `CC[C@H](C)[C@@H]1NC(=O)[C@H](Cc2ccccc2)NC(=O)[C@H](C)NC(=O)C(C)(C)NC(=O)[C@H](CCC(N)=O)NC(=O)[C@H](C)NC(=O)[C@@H](NC(=O)[C@H](CCCCN)NC(=O)[C@H](CC(=O)O)NC(=O)[C@H](CC(C)C)NC(=O)[C@H](CC(C)C)NC(=O)[C@@H](NC(=O)[C@H](CO)NC(=O)[C@H](Cc2ccc(O)cc2)NC(=O)[C@H](CC(=O)O)NC(=O)[C@H](CO)NC(=O)[C@@H](NC(=O)[C@H](Cc2ccccc2)NC(=O)[C@@H](NC(=O)CNC(=O)[C@H](CCC(N)=O)NC(=O)C(C)(C)NC(=O)[C@@H](N)Cc2ccc(O)cc2)[C@@H](C)O)[C@@H](C)O)[C@@H](C)CC)CSCC(=O)NCCN(C(=O)CCC(=O)NCCOCCOCC(=O)NCCOCCOCC(=O)NCCCC[C@H](NC(=O)CCCCCCCCCCCCCCCCCCC(=O)O)C(=O)O)CCNC(=O)CSC[C@@H](C(=O)N[C@@H](Cc2ccc(O)cc2)C(=O)N[C@@H](CC(C)C)C(=O)N[C@@H](CC(C)C)C(=O)N[C@@H](CCC(=O)O)C(=O)NCC(=O)NCC(=O)N2CCC[C@H]2C(=O)N[C@@H](CO)C(=O)N[C@@H](CO)C(=O)NCC(=O)N[C@@H](C)C(=O)N2CCC[C@H]2C(=O)N2CCC[C@H]2C(=O)N2CCC[C@H]2C(=O)N[C@@H](CO)C(N)=O)NC1=O` [TG12], the EC50 at GIPR [1] is 66.6 pM; on GLP-1R [2], 5.8 pM; at GIPR [3] it was 12.1 pM; on GLP-1R [4], 205 pM; at GCGR [5] it was 40.3 pM; on GCGR [6], 325 pM.

Take `CC[C@H](C)[C@@H]1NC(=O)[C@H](Cc2ccccc2)NC(=O)[C@@H](NC(=O)C(C)(C)NC(=O)[C@H](CCC(N)=O)NC(=O)[C@H](C)NC(=O)[C@H](CCCCNC(C)=O)NC(=O)[C@H](CCCCN)NC(=O)[C@H](CC(=O)O)NC(=O)[C@H](CC(C)C)NC(=O)[C@](C)(CC(C)C)NC(=O)[C@@H](NC(=O)[C@H](CO)NC(=O)[C@H](Cc2ccc(O)cc2)NC(=O)[C@H](CC(=O)O)NC(=O)[C@H](CO)NC(=O)[C@@H](NC(=O)[C@H](Cc2ccccc2)NC(=O)[C@@H](NC(=O)CNC(=O)[C@H](CCC(N)=O)NC(=O)C2(NC(=O)[C@@H](N)Cc3ccc(O)cc3)CCC2)[C@@H](C)O)[C@@H](C)O)[C@@H](C)CC)CSCC(=O)NCCN(C(=O)CCC(=O)NCCOCCOCC(=O)NCCOCCOCC(=O)NCCCC[C@H](NC(=O)CCCCCCCCCCCCCCCCCCC(=O)O)C(=O)O)CCNC(=O)CSC[C@@H](C(=O)NCC(=O)NCC(=O)N2CCC[C@H]2C(=O)N[C@@H](CO)C(=O)N[C@@H](CO)C(=O)NCC(=O)N[C@@H](C)C(=O)N2CCC[C@H]2C(=O)N2CCC[C@H]2C(=O)N2CCC[C@H]2C(=O)N[C@@H](CO)C(N)=O)NC(=O)[C@H](CC(C)C)NC(=O)[C@H](CC(C)C)NC(=O)[C@H](Cc2ccc(O)cc2)NC(=O)[C@H](CCC(=O)O)NC1=O` [TG43]: the EC50 came to 13.6 pM on GIPR [1]; 1.3 pM at GLP-1R [2]; 6.4 pM at GIPR [3]; 57.1 pM on GLP-1R [4]; 3.8 pM at GCGR [5]; 78.7 pM on GCGR [6].

Take `CC[C@H](C)[C@@H]1NC(=O)[C@H](Cc2ccccc2)NC(=O)[C@@H](NC(=O)C(C)(C)NC(=O)[C@H](CCC(N)=O)NC(=O)[C@H](C)NC(=O)[C@H](CCCCNC(C)=O)NC(=O)[C@H](CCCCN)NC(=O)[C@H](CC(=O)O)NC(=O)[C@H](CC(C)C)NC(=O)[C@](C)(CC(C)C)NC(=O)[C@@H](NC(=O)[C@H](CO)NC(=O)[C@H](Cc2ccc(O)cc2)NC(=O)[C@H](CC(=O)O)NC(=O)[C@H](CO)NC(=O)[C@@H](NC(=O)[C@H](Cc2ccccc2)NC(=O)[C@@H](NC(=O)CNC(=O)[C@H](CCC(N)=O)NC(=O)C(C)(C)NC(=O)[C@@H](N)Cc2ccc(O)cc2)[C@@H](C)O)[C@@H](C)O)[C@@H](C)CC)CSCC(=O)NCCN(C(=O)CCC(=O)NCCOCCOCC(=O)NCCOCCOCC(=O)NCCCC[C@H](NC(=O)CCCCCCCCCCCCCCCCCCC(=O)O)C(=O)O)CCNC(=O)CSC[C@@H](C(=O)NCC(=O)NCC(=O)N2CCC[C@H]2C(=O)N[C@@H](CO)C(=O)N[C@@H](CO)C(=O)NCC(=O)N[C@@H](C)C(=O)N2CCC[C@H]2C(=O)N2CCC[C@H]2C(=O)N2CCC[C@H]2C(=O)N[C@@H](CO)C(N)=O)NC(=O)[C@H](CC(C)C)NC(=O)[C@H](CC(C)C)NC(=O)[C@H](Cc2c[nH]c3ccccc23)NC(=O)[C@H](CCC(=O)O)NC1=O` [TG28]: the EC50 worked out at 30 pM at GIPR [1]; 2.2 pM on GLP-1R [2]; 60.2 pM on GLP-1R [4]; 83.7 pM at GCGR [5]; 482 pM at GCGR [6].

Take `CC[C@H](C)[C@@H]1NC(=O)[C@H](Cc2ccccc2)NC(=O)[C@@H](NC(=O)C(C)(C)NC(=O)[C@H](CCC(N)=O)NC(=O)[C@H](C)NC(=O)[C@H](CCCCNC(C)=O)NC(=O)[C@H](CCCCN)NC(=O)[C@H](CC(=O)O)NC(=O)[C@H](CC(C)C)NC(=O)[C@](C)(CC(C)C)NC(=O)[C@@H](NC(=O)[C@H](CO)NC(=O)[C@H](Cc2ccc(O)cc2)NC(=O)[C@H](CC(=O)O)NC(=O)[C@H](CO)NC(=O)[C@@H](NC(=O)[C@H](Cc2ccccc2)NC(=O)[C@@H](NC(=O)CNC(=O)[C@H](CCC(N)=O)NC(=O)C(C)(C)NC(=O)[C@@H](N)Cc2ccc(O)cc2)[C@@H](C)O)[C@@H](C)O)[C@@H](C)CC)CSCC(=O)NCCN(C(=O)CCC(=O)NCCOCCOCC(=O)NCCOCCOCC(=O)NCCCC[C@H](NC(=O)CCCCCCCCCCCCCCCCCCC(=O)O)C(=O)O)CCNC(=O)CSC[C@@H](C(=O)NCC(=O)NCC(=O)N2CCC[C@H]2C(=O)N[C@@H](CO)C(=O)N[C@@H](CO)C(=O)NCC(=O)N[C@@H](C)C(=O)N2CCC[C@H]2C(=O)N2CCC[C@H]2C(=O)N2CCC[C@H]2C(=O)N[C@@H](CO)C(N)=O)NC(=O)[C@H](CC(C)C)NC(=O)[C@H](CC(C)C)NC(=O)[C@H](Cc2ccc(O)cc2)NC(=O)[C@H](CCC(=O)O)NC1=O` [TG15]: the EC50 at GIPR [1] worked out at 85.6 pM; on GLP-1R [2], 1.9 pM; on GIPR [3], 3.3 pM; at GLP-1R [4], 116 pM; at GCGR [5] it was 40.3 pM; on GCGR [6], 329 pM.
